row,melting point [°C],SMILES
1,275 to 277,O=C1NCc2c1cc1ccc3c(c1c2-c1ccc2c(c1)OCO2)OCC3
2,230 to 231,COc1ccc(CN2CC(=O)Nc3cccc(Cl)c3C2=O)c(OC)c1
3,248,O=C(O)CCc1cc2nc(Cl)ccc2n1S(=O)(=O)c1ccc2ncsc2c1
4,112,CC(C)Cc1cc(C(=O)NCCc2ccncc2)ccc1OCc1ccc(F)cc1
5,310 to 312,Cn1c2c(c3ccccc3c1=O)C(=O)c1cc3c(cc1-2)OCO3
6,156 to 158,Clc1cnc2c(COCn3cncn3)c(Cl)ccc2c1
7,215 to 216,COc1ccc(Oc2c(SCc3ccccc3)cc(C(=O)O)cc2S(N)(=O)=O)cc1
8,142 to 144,O=C(CC(C(=O)c1ccccc1)C(O)=S)c1ccccc1 (stereo not drawn)
9,166 to 168,COc1cc([N+](=O)[O-])c2nccc(C)c2c1Oc1ccc(Cl)cc1Cl
10,169 to 171,CCc1nc2ccccn2c1S(N)(=O)=S (stereo not drawn)
11,212 to 214,CCCCC(CC(=O)Nc1cc(C(N)=O)ccc1C(C)(C)C)c1cc(Cl)c(OC)cc1OC (stereo not drawn)
12,73 to 75,CCOC(=O)C1CCc2cc(O)c(C(C)=O)cc2C1 (stereo not drawn)
13,178 to 183,FC(F)(F)c1ccc(-c2cc(Oc3ccc4cccnc4c3)nnc2-c2ccccc2)cc1
14,176 to 179,CCCn1c(CCOC)nc2c(N)nc3cc(OC4CCN(C(=O)NC(C)C)CC4)ccc3c21
15,60 to 63,CCOC(=O)c1[nH]c(C)c(C)c1OCCCCl
16,62 to 63,COC(=O)C(C)(C)Oc1ccc(C(C)=O)cc1
17,163 to 165,Cc1ccc(C(=O)N(C)C)cc1-c1nc(NC2CCN(C)CC2)nc2c1CNC(=O)N2c1c(F)cccc1F
18,39 to 42,COc1cc(C)cc(OCCCSCCC(=O)O)c1
19,149 to 150,CCc1nc(Br)c(Br)[nH]1
20,147 to 148,CCOc1cc(OCCCc2cn(-c3ccc(C(F)(F)F)cn3)nc2O)ccc1CCC(=O)OC
21,130 to 131,CS(=O)(=O)c1ccc(-c2ccccc2Oc2ccccc2)cc1
22,96 to 98,Cc1ccc(SCC(CCC(=O)O)C(=O)O)cc1C (stereo not drawn)
23,251 to 253,C/C(=C(\C#N)C(=S)/N=C/N(C)C)N1CCCN(c2ccc(C(F)(F)F)cc2)CC1
24,119 to 120,CCOC(=O)c1c(C)cc2c(c1C)c(=O)n(-c1ccccc1C(F)(F)F)c(=O)n2CCN1CCN(C(=O)C=Cc2ccccc2)CC1
25,151 to 158,CCCCc1c(OC(=O)C(C)(C)C)n(-c2ccc(OC(C)=O)cc2)n(-c2ccccc2)c1=O
26,301 to 302,Cn1c(C(=O)O)cc2c3c(c(-c4ccccc4Cl)cc21)C(=O)NC3=O

row,melting point [°C],SMILES
1,78 to 80,O=[N+]([O-])c1cccc(C(Cl)=NN=C(Cl)c2ccc(C(F)(F)F)cc2)c1
2,151 to 152,O=C(NCCCCCCCNC(=O)c1ccc2c(c1)OCO2)c1ccc2c(c1)OCO2
3,171 to 172,N#Cc1ccccc1-c1ccc2cc(CBr)ccc2c1
4,148 to 150,CC(c1ccccc1N1CCCCC1)C(C(N)=O)c1ccc(C(=O)N2CCOCC2)cc1 (stereo not drawn)
5,297 to 300,COc1ccc(OC)c2c1C(=O)c1c(O)ccc(O)c1C2=O
6,141 to 143,CC(CCNC(=O)c1ccc(Cl)s1)n1ccnc1 (stereo not drawn)
7,239 to 240,Cc1nc2c(N)nc3cccnc3c2n1Cc1cc(-c2ccc(F)cc2)no1
8,150 to 155,COC(=O)C1CN(C(C)=O)c2ccccc2CN1S(=O)(=O)c1ccc(OC)cc1 (stereo not drawn)
9,67 to 68,CCC(C)c1ccccc1SC1=C(O)CC(CCc2ccccc2)(c2ccccc2)OC1=O (stereo not drawn)
10,205 to 206,O=C(O)c1ccnc(-c2ccc3c(c2)C(c2ccc(Cl)cc2Cl)CC3)c1 (stereo not drawn)
11,209 to 210,OC(CNC(=S)NCc1ccc(Cl)cc1)(Cn1cncn1)c1ccc(Cl)cc1Cl (stereo not drawn)
12,204 to 209,COc1cc(O)c(-c2ccccc2)nn1
13,54 to 56,COc1ccc(S(=O)(=O)CC(C)=CCOC(C)=O)cc1
14,110 to 111,CN(CC#N)[C@H](COCc1cc(C(F)(F)F)cc(C(F)(F)F)c1)c1ccccc1
15,238 to 242,CC(=O)Nc1cc(Oc2ccc3c(C(=O)Nc4ccc(CN5CCN(C)CC5)cc4)cccc3c2)ncn1
16,196 to 197,COc1ccc(S(=O)(=O)Nc2cccnc2Nc2ccc(F)cc2)cc1
17,150 to 151,CCOC(=O)CCc1cc(O)nn1-c1ccccc1
18,176 to 178,Nc1c(Cl)cnnc1Cl
19,140 to 143,O=C1c2cc(O)ccc2OCC1Cc1ccccc1 (stereo not drawn)
20,192,O=C(CN1C(=O)c2ccccc2C1=O)Nc1ccccc1OC(F)(F)F
21,266,CCn1cc(C(=O)O)c(=O)c2cc(Br)c(N3CCOCC3)cc21
22,173 to 176,CC(=O)OCCOCn1c(=O)sc2c(=O)[nH]c(N)nc21
23,138 to 140,COc1cc(C(=O)NCC2c3ccccc3CCN2CCO)cc(OC)c1OC (stereo not drawn)
24,259 to 265,Cc1ccccc1-c1cc(F)c2ncc(C(=O)NCc3ccc(Cl)cc3)c(O)c2c1
25,152 to 154,CCCCCCCCCC=COC1OC(CO)C(O)C(O)C1NC(C)=O (stereo not drawn)
26,62.5 to 63.5,CCOC(=O)C=CC(=O)c1ccc(Cl)cc1

row,melting point [°C],SMILES
1,148 to 150,O=C(Nc1ccccc1)C1=C(c2ccccc2)C(c2ccccc2)OC1=O (stereo not drawn)
2,263 to 265,N=C(N)Nc1ccc(C(=O)Nc2ncc(Cl)[nH]2)cc1
3,210 to 214,O=C(O)c1ccc(C(=O)N2Cc3cccn3Cc3ccccc32)cc1
4,124 to 126,Cc1cc(C)c(C(C#N)=CO)c(C)c1
5,174 to 176,COc1cccc(C(=O)NC2(C(=O)c3cc(C)cc(C)c3)CC2)c1C
6,97,CCCCSc1c2sc3ccccc3nc-2cc(C)c1=O
7,179 to 181,COc1ccc(-c2nccc(C(N)=O)c2N)cc1
8,157 to 159,CCC(C)N1CC(C)=CC2=C1N1CN(OC)C=C1N=N2 (stereo not drawn)
9,160 to 161,CNC(=O)c1cc(-c2ccc(OC)cc2)nn(CC=Cc2ccccc2)c1=O
10,180,NC(=O)C=Cc1cccc(Cl)c1
11,138 to 140,COc1ccc(C(=O)c2c(-c3ccc(O)cc3)sc3cc(O)ccc23)cc1
12,145 to 146,O=C1OC(=Cc2c[nH]c3ccccc23)C(=O)N1Cc1cc(C(F)(F)F)cc(C(F)(F)F)c1
13,231 to 233,O=C(O)c1ccc(COCc2csc3nc(C(=O)NCc4ccc(F)c(Br)c4)[nH]c(=O)c23)cc1
14,202 to 204,CN1CCOc2c(C(=O)O)cc(Cl)cc21
15,183 to 185,O=C(O)C1CNc2ccccc2CN1 (stereo not drawn)
16,162 to 164,O=C(NCC1CCCC1)NCC1CCCC1
17,133,COC(=O)c1cc(O)cc(O[C@@H](C)CO)c1
18,140 to 145,C=CCOC(=O)c1ccc(C(=O)NCc2ccc3c(c2CO)C(C)(C)CCC3(C)C)cc1
19,162 to 164,N#Cc1cc(Br)c(O)c([N+](=O)[O-])c1
20,108 to 111,N#CCCSCc1csc(=O)[nH]1
21,204 to 207,CC(C)OC(=O)c1cc(-n2c(=O)[nH]c3c(c2=O)CCC3)c(F)cc1Cl
22,96 to 97,Cc1ccc(C)c(-c2ccc(C#N)c(C)c2)c1
23,102 to 104,CC(=O)C(C(=O)c1ccc(Cl)cc1)C(=O)c1ccc(C(F)(F)F)cc1[N+](=O)[O-] (stereo not drawn)
24,151 to 152,Cc1c(Br)c2c(c(C)c1NC=O)C(c1ccc(C(C)C)cc1)CO2 (stereo not drawn)
25,80 to 89,Cc1noc(-c2cccc(CN3C(=O)C4(COc5cc6c(cc54)OCCO6)c4ccccc43)c2)n1 (stereo not drawn)
26,101 to 103,CCOC(=O)c1c(C(F)(F)F)nc(C(F)(F)Cl)c(C(=O)OC)c1NN1CCCC1

row,melting point [°C],SMILES
1,180 to 182,O=C(Cn1nc(-c2ccccc2O)nc1-c1ccccc1O)NCCN1CCOCC1
2,119 to 121,O=C(CCCN1CCN(c2ccccc2Cl)CC1)N1CCc2ccccc21
3,108 to 109,OC[C@H]1C[C@@H]2c3ccccc3Oc3ccc(F)cc3[C@H]2N1
4,70.4,COc1cc(C(=O)CSC)ccc1OC(C)=O
5,129 to 132,CC(C)(C)OC(=O)Nc1cc(N2CCC(OC3CCCCO3)CC2)c(-c2ccc(F)cc2)cc1NC(=O)CC(=O)c1cccc(-n2ccnc2)c1 (racemic)
6,156 to 158,CN(Cc1cc2c3c(c1)c(=O)c(C(=O)NCc1ccc(F)cc1)cn3CC(=O)N2C)C[C@@H](O)c1nccs1
7,143 to 144,COc1cc(CI)ccc1C12CC3CC(CC(C3)C1)C2
8,174 to 178,O=C(NCc1ccc(Cl)cc1)c1cn(CCO)c2sc(CCCO)cc2c1=O
9,63 to 65,C=C1CCC(c2ccc(N3CC(COC)OC3=O)cc2)CC1 (racemic)
10,117,COc1ccc(NC=O)c(COC=O)c1
11,74 to 75,CC(=O)c1cc(Cl)ccc1Nc1ccc(OCc2ccccc2)cc1
12,113 to 114,CC(=C1SCCCS1)c1ccc(Sc2ccc(O)cc2)cc1
13,137 to 139,CC(C)(C)OC(=O)Nc1ccc(C#Cc2ccccc2F)cc1N
14,228 to 230,CCOC(=O)c1ccc(-c2cn3cc(C)ccc3n2)cc1
15,215,CNc1cc(NC)nc(NC)n1
16,94 to 95,O=C1NC2c3ccccc3CC2O1 (stereo not drawn)
17,132 to 133,CSc1cc(C)nc(SC)c1NC(=O)CCCCCSc1nc2ncccc2o1
18,215 to 216,CS(=O)(=O)Oc1ccc(-c2c3ccccc3c(C(F)(F)F)c3sc4ccccc4c23)cc1
19,46 to 49,COC(=O)CCCCCOc1ccc(NC(=O)COCc2ccccc2)cc1
20,77 to 78,O=C1NCC(Cc2cccc(F)c2)O1 (stereo not drawn)
21,120 to 121,CSC[C@H](NC(=O)C(C)(C)SC)C(=O)O
22,133 to 135,Cc1ccc(CC2CCN(C(=O)C(=O)O)CC2)cc1
23,144,Cc1c(C=O)nc(-c2ccc(C(F)(F)F)cc2)n1C
24,115 to 117,C(=C\c1nc(COc2ccc(CCCn3cnc4ccccc43)cc2)co1)/c1ccccc1

row,SMILES,melting point [°C]
1,N#Cc1nn(-c2c(Cl)cc(C(F)(F)F)cc2Cl)c(Cl)c1C1CC1(Br)Br (stereo not drawn),104

# From a melting point compilation (Tetko et al.; mined from patent text by program, amines drawn as free bases though some values may be those of a salt)
